Results published in USRE30241E, “Esters of 3-(hydroxy or hydroxymethyl)-4-hydroxyphenyl aminomethyl ketones” (Sterling Drug Inc., priority 1970, dated 1980).
Read-outs that look alike come from different tables or passages of the source.

Assays:
diastolic blood pressure = experiment: Effect on diastolic blood pressure in the anesthetized dog; format: in vivo
Experimental: The effect of a rapid intravenous injection on the heart rate the heart rate was conducted in anesthetized dogs under normal respiration. A few open-chest dogs were also tested. Increase in heart rate was measured by using an electrocardiograph attached to the dog. Readings were taken every 0.5-1 minute for the first 10 minutes and every 2-5 minutes thereafter until recovery. In some cases, several doses and more than one compound were tested alternately in the same dog. The blood pressure effect was simultaneously recorded.

[1] = tested on: carbachol- or histamine-induced bronchoconstriction; experiment: Bronchodilator Test Method I, anesthetized dog, intraduodenal activity; format: in vivo; conditions: Canis lupus familiaris, read-out: Bronchodilation; for inhibition in vivo at 0.035 mg/kg: 35 mcg/kg (salt) intraduodenal; for inhibition in vivo at 0.07 mg/kg: 70 mcg/kg (salt) intraduodenal; for inhibition in vivo at 0.28 mg/kg: 280 mcg/kg (salt) intraduodenal
Method in brief: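 Pentobarbital-anesthetized (30 mg/kg i.v.) open-chest dogs of 9-18 kg, artificially ventilated; airway pressure recorded via tracheal cannula transducer. Test solution injected intraduodenally; from 5 min, i.v. carbachol (4-6 μg/kg) or histamine diphosphate (35-45 μg/kg) challenges every 30-60 min gauged degree and duration of bronchodilation.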

[2] = tested on: carbachol- or histamine-induced bronchoconstriction; experiment: Bronchodilator Test Method I, anesthetized dog, intravenous activity; format: in vivo; conditions: Canis lupus familiaris, 1 min, 1-2 min, read-out: Bronchodilatation
Method in brief: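 Pentobarbital-anesthetized (30 mg/kg i.v.), open-chest, artificially ventilated dogs were given i.v. carbachol (4-6 µg/kg) or histamine diphosphate (35-45 µg/kg). Test compound was given i.v. mixed with, after, or 1-10 min before the constrictor.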

heart rate = experiment: Cardiovascular studies: effect on the heart rate in the anesthetized dog; format: in vivo
Method in brief: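 Anesthetized dogs, mostly spontaneously breathing, some open-chest, given rapid intravenous injections. Heart rate by electrocardiograph with blood pressure recorded simultaneously, every 0.5-1 minute for 10 minutes then every 2-5 minutes until recovery; several doses or compounds sometimes tested alternately in one dog.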

[3] = tested on: guinea pig bronchioles constricted by carbachol; experiment: Bronchodilator Test Method II, in vitro perfused guinea pig lung
Experimental: In this method bronchodilator activity in vitro was determined by testing the effect of graded doses of the test compounds on guinea pig bronchioles constricted by carbachol, using the technique reported by Sollman and von Oettingen, Proc. Soc, Exp. Biol. Med., 25,692 (1928) as modified by Tainter, Pedden, and James, J. Pharm. Exp. Ther., 51, 371 (1934) and by Luduena, von Euler, Tullar, and Lands, Arch. intern. Pharmacol., III, 392 (1957).

[4] = Stability of test solutions; conditions: ethylenediaminetetraacetic acid added; distilled water or saline solutions

In the case of `CC(C)(C)NCC(O)c1ccc(O)c(O)c1` (stereo not drawn) [Ref. Cpd. I, 3,4-Dihydroxy-alpha-(tert-butylaminomethyl)benzyl alcohol, reference compound], the “Mean Decrease in Diastolic Blood Pressure” value (“Mean Decrease” for short) (diastolic blood pressure; 0.17 meg/kg (salt) i.v.) is reported as 13%, the “Mean Decrease” value (diastolic blood pressure; 0.35 meg/kg (salt) i.v.) is reported as 33% and the “Mean Decrease” value (diastolic blood pressure; 0.7 meg/kg (salt) i.v.) is reported as 41%. For the same compound, the inhibition in vivo at 0.035 mg/kg ([1]; 10 min, 10 min) was 34%, the inhibition in vivo at 0.07 mg/kg ([1]; 10 min, 10 min) was 40% and the inhibition in vivo at 0.28 mg/kg ([1]; 10 min, 10 min) was 66%. For the same compound, the inhibition in vivo at 0.035 mg/kg ([1]; 0.5 h, 30 min) was 41%, the inhibition in vivo at 0.07 mg/kg ([1]; 0.5 h, 30 min) was 60% and the inhibition in vivo at 0.28 mg/kg ([1]; 0.5 h, 30 min) was 59%. It also gave an inhibition in vivo at 0.035 mg/kg ([1]; 1 h, 60 min) of 44%, an inhibition in vivo at 0.07 mg/kg ([1]; 1 h, 60 min) of 35% and an inhibition in vivo at 0.28 mg/kg ([1]; 1 h, 60 min) of 46%. The inhibition in vivo at 0.035 mg/kg ([1]; 2 h, 120 min) was 27%, the inhibition in vivo at 0.07 mg/kg ([1]; 2 h, 120 min) was 30% and the inhibition in vivo at 0.28 mg/kg ([1]; 2 h, 120 min) was 54%. It also gave an inhibition in vivo at 0.035 mg/kg ([1]; 3 h, 180 min) of 3%, an inhibition in vivo at 0.28 mg/kg ([1]; 3 h, 180 min) of 30% and an inhibition in vivo at 0.07 mg/kg ([1]; 4 h, 240 min) of 0%. For the same compound, the inhibition in vivo at 0.00017 mg/kg ([2]; 0.17 mcg/kg i.v.) was 22%, the inhibition in vivo at 0.00035 mg/kg ([2]; 0.35 mcg/kg i.v.) was 57% and the “Mean Maximal Increase in the Heart Rate” value (heart rate; 0.17 mcg/kg (salt) i.v.) was 20%. For the same compound, the “Mean Maximal Increase in the Heart Rate” value (heart rate; 0.35 mcg/kg (salt) i.v.) was 32%, the “Mean Maximal Increase in the Heart Rate” value (heart rate; 0.7 mcg/kg (salt) i.v.) was 44% and the ED50 ([3]; carbachol (Doryl) 1:5 million) was 0.18 µg (base). The “Duration, Mean” value ([3]; dose 0.32 mcg (base)) was 5 ± 1.4 min and the “need for stabilizing agent in solution” value [4] was “required to stabilize them”.
